11 compounds from patent publication US20260258039A1, “AROMATIC COMPOUND, METHOD FOR PREPARING SAME, AND USE THEREOF IN PREPARATION OF ESTROGEN RECEPTOR DEGRADER” (Hinova Pharmaceuticals Inc., priority 2022, published 2026) can be followed below.

Where two headings read alike, the source gives them in different places. Where only a bound is given, the exact number is not on record here.

What is called DC50 is the concentration at which degradation of the target reaches its halfway point. Low values mean degradation at low concentration, high ones degradation only at high concentration. In general, Dmax refers to the greatest extent of degradation seen. Broadly, the IC50 is the concentration needed to halve the response being measured.

What all share (assay type): cell-based
The target in assay [1] is T1, ER (Homo sapiens, UniProt P03372).
T1 construct: T47D breast cancer cells were subcultured in cell culture medium; endogenous in cells; host or cells: T47D breast cancer cells
T1 sequence (P03372 1-595): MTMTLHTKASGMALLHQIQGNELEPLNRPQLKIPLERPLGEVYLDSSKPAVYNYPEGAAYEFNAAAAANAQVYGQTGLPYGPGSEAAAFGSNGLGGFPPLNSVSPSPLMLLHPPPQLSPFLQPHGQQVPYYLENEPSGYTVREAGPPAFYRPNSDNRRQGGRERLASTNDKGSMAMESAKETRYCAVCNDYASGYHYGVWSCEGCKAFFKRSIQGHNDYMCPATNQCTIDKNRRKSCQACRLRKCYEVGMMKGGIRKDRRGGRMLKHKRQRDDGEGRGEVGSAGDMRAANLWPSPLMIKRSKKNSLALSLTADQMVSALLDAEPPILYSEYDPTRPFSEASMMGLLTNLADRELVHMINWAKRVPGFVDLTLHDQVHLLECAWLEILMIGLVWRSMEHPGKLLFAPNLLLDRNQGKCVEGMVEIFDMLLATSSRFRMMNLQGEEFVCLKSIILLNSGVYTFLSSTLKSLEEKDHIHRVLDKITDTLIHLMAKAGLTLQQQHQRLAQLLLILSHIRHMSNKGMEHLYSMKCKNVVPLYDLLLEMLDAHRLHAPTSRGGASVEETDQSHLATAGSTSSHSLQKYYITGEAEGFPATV
The assay is described as follows: Degradation activities on ER (ELISA) in T47D breast cancer cells. Conditions: T47D cells, 24 h, ELISA; for DC50: concentration required to degrade 50% of the target protein; for Dmax: maximum percentage of target protein degraded. Summed up: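 T47D cells were seeded at 2.5×10^4/well, grown 3 days at 37 °C, 5% CO2, then exposed 24 h to compound at 100, 25, 6.25, 1.56, 0.39 and […] nM (final). ER protein was quantified by sandwich ELISA with HRP/TMB read at 450 nm, and DC50 and Dmax came from dose-response fits.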
For orientation: An ELISA detects its analyte on a solid surface through an enzyme-linked reagent.

The target in assay [2] is T1, ER. Description: Degradation activities on ER (Western blotting) in T47D breast cancer cells. To be noted: 24 h, Western blot. The procedure: T47D breast cancer cells were subcultured in cell culture medium, and the cells in good growth condition were seeded into 6-well plate at 2 mL/well, with 2.5×10^5 cells per well. The cells were incubated overnight in a 37° C. incubator under 5% CO2. The drug was prepared into 10 mM stock solution with dimethyl sulfoxide (DMSO). Prior to use, the stock solution was diluted with DMSO in a ratio of 1:3. […] of the diluted compound was added to the cell culture wells (to ensure a DMSO concentration of 0.1% in the culture system), and each concentration was repeated twice. The plate were gently shaken to mix. Additionally, the negative control wells (containing equal amount of DMSO) and the positive control wells were set up. After 24 hours of culture, the cells were lysed with RIPA cell lysis buffer to extract proteins, and the protein concentration was measured using a BCA kit. The protein loading buffer (5×) was added, and the plate was heated at 100° C. for 5 min. Then, the sample was stored at −20° C. […] of protein collected from each well was loaded onto a polyacrylamide gel for electrophoresis. The protein is transferred from the polyacrylamide gel to a PVDF membrane, blocked with 5% skim milk at room temperature for 1 h, and incubated overnight at 4° C. with primary antibodies Anti-ERα rabbit mAb (CST, Cat #: 8644S) and Anti-GAPDH rabbit mAb (CST, Cat #: 2118L). The membrane was washed three times with TBST solution, with 10 min for each time. The secondary antibody (horseradish peroxidase-labeled goat anti-rabbit IgG) was incubated at room temperature for 2 h, and then the membrane was washed three times with TBST solution, with 10 min for each time. Finally, ECL chromogenic solution was added for color development, and an automatic chemiluminescence instrument was used to take pictures. Images were collected and analyzed.
The degradation activities of the compounds according to the present invention towards ER, as tested by western blotting, are presented in Table 2

Assay [3] has as its system MCF-7 breast cancer cells. Description: Inhibition of proliferation of MCF-7 breast cancer cells (agarose culture, CellTiter-Glo 3D). To be noted: MCF-7 cells, 15 days of cultivation, read-out: IC50. On the procedure:
After 1.6% agarose and 0.7% agarose were sterilized at high temperature, they were cooled to around 50° C., and placed in a 42° C. water bath for later use. MCF-7 breast cancer cells were subcultured in complete cell culture medium, and cells in good growth condition were digested and counted for future use. 50 µL of 1.6% agarose mixed with 2× culture medium at a ratio of 1:1 was spread into the bottom of 96-well plate, and allowed to cool and solidify. 0.7% agarose was mixed with diluted cell suspension in a ratio of 1:1, and then 50 µL of the mixture of gel and cells was added to each well, with 2000 cells for each well; the mixture was allowed to cool and solidify at room temperature. 50 μL of culture medium was added to the plate containing cells, and the plate was placed in a 37° C., 5% CO2 incubator and cultured for 24 h. The drug was prepared into 10 mM stock solution with dimethyl sulfoxide (DMSO). The stock solution was diluted in a ratio of 1:3, to obtain 9 concentration gradients. Then, each concentration of compound solution was further diluted with culture medium in 1:250 (to ensure a DMSO concentration of 0.1% in the culture system). Two replicate wells was set for each concentration. 50 μL of the diluted compound solution was added to the cell culture wells (with final concentrations of 10 μM, 3.3 μM, 1.1 μM, 0.37 μM . . . ). The plate was gently shaken for mixing. Additionally, 3 negative control wells only containing cells and 3 blank control wells only containing culture medium were set up (each of the 6 wells was added with 50 μL of DMSO diluted with culture medium in a ration of 1:250). After 15 days of cultivation, the cell plates and CellTiter-Glo 3D Cell Viability were taken out and equilibrated to room temperature in advance. 80 μL of culture medium were aspirated and discarded from the cell plate, and 120 µL of CellTiter-Glo 3D Cell Viability solution was added to each well. The plates were centrifuged at 1200 rpm/min for 5 min, and then placed in the dark and kept for 25 min. The […] were measured using a multi-function microplate reader. The data were analyzed using the Dose-response-inhibition equation in GraphPad Prism8 software, and the IC50 values were obtained, as shown in Table 3.
In general terms: In ATP-based viability assays light output follows the ATP content of the culture.

Regarding “3-(5-(7-((1-(2,6-difluoro-4-((3,4-cis)-3-(2-fluorophenyl)-7-hydroxychroman-4-yl)phenyl)piperidin-4-yl)methyl)-2,7-diazaspiro[3.5]nonane-2-yl)-1-oxoisoinodolin-2-yl)piperidin-2,6-dione [Example 33]”, at ER [1], the DC50 is < 10 nM and the Dmax result was “B (B: 75-50%)”. The “Percentage reduction of ER” value on ER [2] (compound concentration 1 nM) was 53%. For the same compound, the IC50 in assay [3] is < 10 nM.

Take `O=C1CCC(N2Cc3cc(N4CC5(CCN(CC6CCN(c7ccc([C@@H]8c9ccc(O)cc9CC[C@@H]8c8ccccc8)cc7)CC6)CC5)C4)ccc3C2=O)C(=O)N1` (stereo partly shown) [Example 4]: on ER [2] (compound concentration 10 nM), the “Percentage reduction of ER” value worked out at 74%. In addition, the IC50 in assay [3] (Homo sapiens, MCF7, 360 h) fell in the range of 11 to 50 nM.

As for `O=C1CCC(N2Cc3cc(N4CCC5(CCN(CC6CCN(c7ccc([C@@H]8c9ccc(O)cc9OC[C@@H]8c8ccccc8)cc7)CC6)C5)C4)ccc3C2=O)C(=O)N1` (stereo partly drawn) [Example 8, 3-(5-(7-((1-(4-((3S,4R)-7-hydroxyl-3-phenyltryptophane-4-yl)phenyl)piperidin-4-yl)methyl)-2,7-diazaspiro[4.4]nonane-2-yl)-1-oxoisoinodolin-2-yl)piperidin-2,6-dione], on ER [2] (compound concentration 1 nM), the “Percentage reduction of ER” value stood at 47%. In assay [3] (Homo sapiens, MCF7, 360 h), the IC50 was 11 to 50 nM.

Regarding `O=C1CCC(N2Cc3cc(N4CC5(CCN(CC6CCN(c7ccc([C@@H]8c9ccc(O)cc9CC[C@@H]8c8ccccc8)cc7)CC6)C5)C4)ccc3C2=O)C(=O)N1` (stereo partly drawn) [Example 31, 3-(5-(6-((1-(4-((1,2-cis)-6-hydroxyl-2-phenyl-1,2,3,4-tetrahydronaphthalen-1-yl)phenyl)piperidin-4-yl)methyl)-2,6-diazaspiro[3.4]octane-2-yl)-1-oxoisoinodolin-2-yl)piperidin-2,6-one], at ER [2] (compound concentration 100 nM), the “Percentage reduction of ER” value stood at 50%. In addition, the IC50 in assay [3] (Homo sapiens, MCF7, 360 h) was in the range of 11 to 50 nM.

For `O=C1CCC(N2Cc3cc(N4CC5(CCN(CC6CCN(c7ccc([C@H]8c9ccc(O)cc9OC[C@H]8c8ccccc8F)cc7)CC6)CC5)C4)ccc3C2=O)C(=O)N1` (stereo partly drawn) [Example 34, 3-(5-(7-((1-(4-((3R,4S)-3-(2-fluorophenyl)-7-hydroxychroman-4-yl)phenyl)piperidin-4-yl)methyl)-2,7-diazaspiro[3.5]nonane-2-yl)-1-oxoisoindol-2-yl)piperidin-2,6-dione], on ER [1], the DC50 was > 100 nM. For the same compound, the greatest degradation seen (Dmax) at ER [1] (read-out: Dmax) was < 50%. Also, the “Percentage reduction of ER” value on ER [2] (compound concentration 100 nM) is reported as 51%.

With `O=C1CCC(N2C(=O)c3ccc(N4CCC5(CCN(CC6CCN(c7ccc([C@@H]8c9ccc(O)cc9CC[C@@H]8c8ccccc8)cc7)CC6)C5)C4)cc3C2=O)C(=O)N1` (stereo partly drawn) [Example 53, 2-(2,6-dioxopiperidin-3-yl)-5-(7-((1-(4-((1R,2S)-6-hydroxyl-2-phenyl-1,2,3,4-tetrahydronaphthalen-1-yl)phenyl)piperidin-4-yl)methyl)-2,7-diazaspiro[4.4]nonane-2-yl)isoinodolin-1,3-dione], on ER [1], the DC50 was > 100 nM. Further, the Dmax at ER [1] (read-out: Dmax) was < 50%. At ER [2] (compound concentration 1 nM), the “Percentage reduction of ER” value is 39%.

Turning to `O=C1CCC(N2C(=O)c3ccc(N4CC5(CN(CC6CCN(c7ccc([C@@H]8c9ccc(O)cc9CC[C@@H]8c8ccccc8)cc7)CC6)C5)C4)cc3C2=O)C(=O)N1` (stereo partly drawn) [Example 54, 2-(2,6-dioxopiperidin-3-yl)-5-(6-((1-(4-((1R,2S)-6-hydroxyl-2-phenyl-1,2,3,4-tetrahydronaphthalen-1-yl)phenyl)piperidin-4-yl)methyl)-2,6-diazaspiro[3.3]heptan-2-yl)isoinodolin-1,3-dione], on ER [1], the 50% degradation concentration (DC50) is > 100 nM. Further, the Dmax on ER [1] (read-out: Dmax) was < 50%. Also, the “Percentage reduction of ER” value at ER [2] (compound concentration 100 nM) was found to be 57%.

As to `O=C1CCC(N2C(=O)c3ccc(N4CC(N5CCN(c6ccc([C@@H]7c8ccc(O)cc8CC[C@@H]7c7ccccc7)cc6)CC5)C4)cc3C2=O)C(=O)N1` (stereo partly drawn) [Example 55, 2-(2,6-dioxopiperidin-3-yl)-5-(3-(4-(4-((1R,2S)-6-hydroxyl-2-phenyl-1,2,3,4-tetrahydronaphthalen-1-yl)phenyl)piperazine-1-yl)azetidin-1-yl)isoinodolin-1,3-dione], on ER [1], the DC50 is > 100 nM. Moreover, the Dmax on ER [1] (read-out: Dmax) was < 50%. Also, the “Percentage reduction of ER” value at ER [2] (compound concentration 100 nM) is listed as 25%.

For `O=C1CCC(N2Cc3cc(N4CC5(CN(CC6CCN(c7ccc([C@@H]8c9ccc(O)cc9OC[C@@H]8c8ccccc8)cc7)CC6)C5)C4)ccc3C2=O)C(=O)N1` (stereo partly drawn) [Example 57, 3-(5-(6-((1-(4-((3S,4R)-7-hydroxyl-3-phenyl-chroman-4-yl)phenyl)piperidin-4-yl)methyl)-2,6-diazaspiro[3.3]heptan-2-yl)-1-oxoisoinodolin-2-yl)piperidin-2,6-one], the “Percentage reduction of ER” value at ER [2] (compound concentration 1 nM) was determined as 77%. In assay [3] (Homo sapiens, MCF7, 360 h), the IC50 was < 10 nM.

As to `O=C1CCC(N2Cc3cc(N4CCC5(CC4)CN(CC4CCN(c6ccc([C@@H]7c8ccc(O)cc8OC[C@@H]7c7ccccc7)cc6)CC4)C5)ccc3C2=O)C(=O)N1` (stereo partly drawn) [Example 58, 3-(5-(2-((1-(4-((3S,4R)-7-hydroxyl-3-phenyl-chroman-4-yl)phenyl)piperidin-4-yl)methyl)-2,7-diazaspiro[3.5]nonan-7-yl)-1-oxoisoinodolin-2-yl)piperidin-2,6-dione], at ER [2] (compound concentration 1 nM), the “Percentage reduction of ER” value worked out at 76%. The half-inhibitory concentration (IC50) in assay [3] (Homo sapiens, MCF7, 360 h) is < 10 nM.

Take `O=C1CCC(N2Cc3cc(N4CC5CN(CC6CCN(c7ccc([C@@H]8c9ccc(O)cc9OC[C@@H]8c8ccccc8)cc7)CC6)CC5C4)ccc3C2=O)C(=O)N1` (stereo partly drawn) [Example 83, 3-(5-(5-((1-(4-((3S, 4R)-7-hydroxyl-3-phenylchroman-4-yl)phenyl)piperidin-4-yl)methyl)hexahydropyrrolo[3,4-c]pyrrole-2(1H)-yl)-1-oxoisoinodolin-2-yl)piperidin-2,6-dione]: the “Percentage reduction of ER” value on ER [2] (compound concentration 1 nM) was 87%. Moreover, in assay [3] (Homo sapiens, MCF7, 360 h), the IC50 was < 10 nM.
